The text below walks through data of DBAASP.

≈ marks a conversion by molar mass, not a printed value. Where only a bound is given, the exact number is not on record here.

For orientation: MIC means the lowest concentration that inhibits growth of the organism.

What all share (test): ≥ marks a high value that may be exact or a test limit, other limits are often not marked, values filed in µg/mL are converted to µM
Assay [1] relates to Pseudomonas aeruginosa ATCC 9027.
The test system of assay [2] is Staphylococcus aureus ATCC 6538.
For assay [3], the system named is Bacillus subtilis ATCC 6633.
For assay [4], the system named is Candida albicans ATCC 90028.
Assay [5] concerns Staphylococcus aureus ATCC 43300.
The test system of assay [6] is Acinetobacter baumannii.
The subject of assay [7] is Escherichia coli ATCC 25922.
The subject of assay [8] is Klebsiella pneumoniae ATCC 700603.
In assay [9] the test system is Staphylococcus aureus ATCC 25923.
The subject of assay [10] is Bacillus subtilis.
The test system of assay [11] is Candida albicans.
For assay [12], the system named is Escherichia coli.
The subject of assay [13] is Staphylococcus aureus.
For assay [14], the system named is Acinetobacter baumannii ATCC 19606.

Turning to `CC(C)C[C@H](NC(=O)[C@H](CC(C)C)NC(=O)[C@H](CCCCN)NC(=O)[C@H](C)NC(=O)[C@H](CC(C)C)NC(=O)[C@H](CCCCN)NC(=O)[C@H](CCCCN)NC(=O)[C@H](C)NC(=O)[C@H](CC(C)C)NC(=O)[C@H](CCCCN)NC(=O)[C@H](CCCCN)NC(=O)[C@H](C)NC(=O)[C@@H](N)Cc1ccccc1)C(N)=O` [FAKKLAKKLAKLL], the MIC in assay [1] and in assay [2] was 3.4 µM (≈ 5 µg/mL) in each case.

Regarding `CC(C)C[C@H](NC(=O)[C@H](CCCCN)NC(=O)[C@H](CCCCN)NC(=O)[C@H](C)NC(=O)[C@H](CC(C)C)NC(=O)[C@H](CCCCN)NC(=O)[C@H](C)NC(=O)[C@H](CC(C)C)NC(=O)[C@H](CCCCN)NC(=O)[C@H](CCCCN)NC(=O)[C@H](CC(C)C)NC(=O)[C@H](CCCCN)NC(=O)[C@H](CCCCN)NC(=O)[C@H](C)NC(=O)[C@@H](N)Cc1ccccc1)C(N)=O` [FAKKLKKLAKLAKKL], the figures for the MIC in assay [1] and in assay [2] were 2.89 µM (≈ 5 µg/mL) and 5.79 µM (≈ 9.99 µg/mL), respectively.

On to `CC(C)C[C@H](NC(=O)[C@@H](NC(=O)[C@H](CCCCN)NC(=O)[C@H](CCCCN)NC(=O)[C@H](C)NC(=O)[C@H](CC(C)C)NC(=O)[C@H](CCCCN)NC(=O)[C@H](C)NC(=O)[C@H](CC(C)C)NC(=O)[C@H](CC(C)C)NC(=O)[C@H](CCCCN)NC(=O)[C@H](C)NC(=O)[C@@H](N)Cc1ccccc1)C(C)C)C(N)=O` [FAKLLAKLAKKVL], for which the figures for the minimal inhibitory concentration (MIC) in [1] and in assay [2] were 69.3 µM (≈ 99.9 µg/mL) and 3.47 µM (≈ 5 µg/mL), respectively.

On to `CC(C)C[C@H](NC(=O)[C@H](CCCCN)NC(=O)[C@H](C)NC(=O)[C@H](CC(C)C)NC(=O)[C@H](CC(C)C)NC(=O)[C@H](CCCCN)NC(=O)[C@H](C)NC(=O)[C@@H](N)Cc1ccccc1)C(=O)N[C@@H](C)C(=O)N[C@@H](CCCCN)C(N)=O` [FAKLLAKLAK], for which the results for the MIC in assay [1] and in assay [2] were 181 µM (≈ 200 µg/mL) and 45.4 µM (≈ 50 µg/mL), respectively.

In the case of `CC[C@H](C)[C@H](NC(=O)CNC(=O)[C@H](CCCCN)NC(=O)CNC(=O)[C@H](Cc1ccccc1)NC(=O)[C@H](C)NC(=O)[C@H](CC(C)C)NC(=O)[C@H](CCCCN)NC(=O)[C@H](C)NC(=O)[C@H](Cc1c[nH]c2ccccc12)NC(=O)[C@H](CC(C)C)NC(=O)[C@H](CCCCN)NC(=O)[C@H](C)NC(=O)[C@@H](N)Cc1ccccc1)C(=O)NCC(=O)N[C@@H](CCCCN)C(=O)N[C@H](C(=O)NCC(=O)N[C@@H](CCCCN)C(=O)N[C@@H](CCCCN)C(=O)N[C@@H](CC(C)C)C(=O)N[C@@H](CC(C)C)C(N)=O)C(C)C` [FAKLWAKLAFGKGIGKVGKKLL], the values for the MIC in assay [1] and in assay [2] were 4.21 µM (≈ 10 µg/mL) and 6.32 µM (≈ 15 µg/mL), respectively.

As for `CC[C@H](C)[C@@H]1NC(=O)[C@H](C)NC(=O)[C@@H](NC(=O)[C@@H](NC(=O)[C@@H](NC(=O)[C@H](C)NC(=O)[C@@H]2CCCN2C(=O)CNC(=O)[C@@H](NC(=O)[C@H](CCCCN)NC(=O)[C@@H](NC(=O)[C@@H](NC(=O)[C@H](CC(C)C)NC(=O)[C@H](CCCN=C(N)N)NC(=O)[C@H](CC(C)C)NC(=O)[C@@H](NC(=O)CNC(=O)[C@@H]2CCCN2C(=O)[C@H](CC(C)C)NC(=O)[C@@H](N)Cc2ccccc2)C(C)C)C(C)C)[C@@H](C)O)C(C)C)C(C)C)C(C)C)CSSC[C@@H](C(=O)O)NC(=O)[C@H](CC(N)=O)NC(=O)[C@H](CCCN=C(N)N)NC(=O)[C@H]([C@@H](C)O)NC1=O` [FLPGVLRLVTKVGPAVVCAITRNC], the MIC was 6.3 µM (≈ 15.9 µg/mL) in assay [3], not below 50 µM in assay [4], 3.1 µM (≈ 7.83 µg/mL) in [5] and 3.1 µM (≈ 7.83 µg/mL) in [2].

As for `CC[C@H](C)[C@H](NC(=O)[C@H](Cc1c[nH]c2ccccc12)NC(=O)[C@H](CCCCN)NC(=O)[C@@H](NC(=O)[C@H](CC(C)C)NC(=O)[C@H](CO)NC(=O)[C@H](CCCCN)NC(=O)CN)C(C)C)C(=O)N[C@H](C(=O)N[C@@H](CCCCN)C(=O)N[C@@H](CO)C(=O)N[C@H](C(=O)N[C@@H](CCCN=C(N)N)C(=O)N[C@@H](CCCCN)C(=O)N[C@@H](C)C(N)=O)C(C)C)C(C)C` [GKSLVKWIVKSVRKA], the minimum inhibitory concentration (MIC) in assay [6] is 25 µM (≈ 42.5 µg/mL); in assay [7], more than 25 µM; in assay [8], more than 25 µM; in [1] it was more than 25 µM; in assay [9], more than 25 µM.

For `CC[C@H](C)[C@H](NC(=O)CNC(=O)[C@H](CO)NC(=O)[C@H](CC(C)C)NC(=O)[C@H](CC(C)C)NC(=O)CN)C(=O)N[C@@H](CC(C)C)C(=O)NCC(=O)N[C@@H](C)C(=O)NCC(=O)N[C@@H](CCCCN)C(=O)N[C@@H](CCC(N)=O)C(=O)N[C@@H](CCCCN)C(=O)N[C@H](C(=O)N[C@H]1CSSC[C@@H](C(=O)O)NC(=O)[C@H](CC(C)C)NC(=O)CNC(=O)[C@H](CO)NC(=O)[C@H](CC(C)C)NC(=O)CNC1=O)C(C)C` [GLLSGILGAGKQKVCGLSGLC], the minimal inhibitory concentration (MIC) in [10] was 19 µM (≈ 37.5 µg/mL); in [11] it was 2.37 µM (≈ 4.68 µg/mL); in assay [12], 4.75 µM (≈ 9.36 µg/mL); in assay [13], 9.5 µM (≈ 18.7 µg/mL).

As for `CC[C@H](C)[C@H](NC(=O)[C@H](CC(C)C)NC(=O)[C@H](C)NC(=O)[C@@H]1CCCN1C(=O)[C@H](CC(C)C)NC(=O)CN)C(=O)N[C@@H](CO)C(=O)N[C@@H](CC(C)C)C(=O)N[C@H](C(=O)N[C@@H](CCCCN)C(=O)N[C@@H](CCCN=C(N)N)C(=O)N[C@@H](CCCCN)C(=O)N[C@@H](CCCN=C(N)N)C(=O)N[C@@H](CCC(N)=O)C(=O)N[C@@H](CCC(N)=O)C(N)=O)[C@@H](C)CC` [GLPALISLIKRKRQQ], the minimum inhibitory concentration (MIC) in assay [10] is 5.81 µM (≈ 9.99 µg/mL); in [12], 93.5 µM (≈ 161 µg/mL); in assay [13], 7.84 µM (≈ 13.5 µg/mL).

As to `CC[C@H](C)[C@H](NC(=O)[C@H](CCCN=C(N)N)NC(=O)[C@@H](NC(=O)[C@@H](NC(=O)[C@@H]1CCCN1C(=O)[C@@H](NC(=O)[C@@H](NC(=O)[C@@H](NC(=O)[C@@H]1CCCN1C(=O)CNC(=O)CNC(=O)[C@H](CCCCN)NC(=O)[C@H](CCCCN)NC(=O)[C@H](Cc1c[nH]c2ccccc12)NC(=O)[C@H](C)NC(=O)[C@H](CCCN=C(N)N)NC(=O)[C@H](CC(C)C)NC(=O)[C@@H](NC(=O)[C@H](CCCCN)NC(=O)[C@H](CCCN=C(N)N)NC(=O)CNC(=O)[C@H](CC(C)C)NC(=O)[C@H](CCCCN)NC(=O)[C@H](CCCN=C(N)N)NC(=O)[C@H](CC(C)C)NC(=O)CNC(=O)[C@@H](N)CCCCN)[C@@H](C)CC)[C@@H](C)CC)[C@@H](C)CC)C(C)C)[C@@H](C)CC)[C@@H](C)CC)C(=O)O` [KGLRKLGRKILRAWKKGGPIIVPIIRI], the MIC in [14] came to 2.3 µM (≈ 7.07 µg/mL); in [6] it was 3.25 µM (≈ 10 µg/mL).

Consider `CC[C@H](C)[C@H](NC(=O)[C@H](CO)NC(=O)[C@H](C)NC(=O)[C@@H](NC(=O)[C@H](CCCCN)NC(=O)[C@@H](N)CCCCN)[C@@H](C)CC)C(=O)NCC(=O)N[C@@H](CCCCN)C(=O)N[C@@H](CCC(=O)O)C(=O)N[C@H](C(=O)N[C@@H](CC(C)C)C(=O)N[C@@H](CCCCN)C(=O)N[C@@H](C)C(=O)N[C@@H](CC(C)C)C(N)=O)C(C)C` [KKIASIGKEVLKAL], for which the MIC is not below 75 µM in assay [10] and 100 µM (≈ 150 µg/mL) in assay [12].

For the compound `CC(C)C[C@H](NC(=O)CNC(=O)[C@@H](NC(=O)[C@@H]1CCCN1C(=O)[C@H](CC(C)C)NC(=O)CNC(=O)[C@H](CC(N)=O)NC(=O)[C@H](CC(N)=O)NC(=O)[C@H](Cc1c[nH]c2ccccc12)NC(=O)[C@@H](NC(=O)[C@H](CCCN=C(N)N)NC(=O)[C@H](CS)NC(=O)[C@H](CCCN=C(N)N)NC(=O)[C@H](Cc1cnc[nH]1)NC(=O)[C@H](CCCCN)NC(=O)[C@H](CCCCN)NC(=O)[C@H](CCCN=C(N)N)NC(=O)[C@@H](N)CCCCN)C(C)C)[C@@H](C)O)C(=O)N[C@@H](Cc1ccc(O)cc1)C(=O)N[C@@H](CCCN=C(N)N)C(=O)N[C@@H](Cc1c[nH]c2ccccc12)C(=O)N[C@@H](CS)C(N)=O` [KRKKHRCRVWNNGLPTGLYRWC], in assay [2], the minimal inhibitory concentration (MIC) is 8 µM (≈ 22.2 µg/mL). That is a single-digit micromolar value.

As to `CC(C)C[C@H](NC(=O)[C@H](C)NC(=O)[C@H](CCCCN)NC(=O)[C@H](CCCCN)NC(=O)[C@H](CC(C)C)NC(=O)[C@H](C)NC(=O)[C@H](CCCCN)NC(=O)[C@H](CCCCN)NC(=O)[C@H](CC(C)C)NC(=O)[C@H](CCCCN)NC(=O)[C@H](CCCCN)NC(=O)[C@H](CC(C)C)NC(=O)[C@H](C)NC(=O)[C@H](CCCCN)NC(=O)[C@H](CCCCN)NC(=O)[C@H](Cc1ccccc1)NC(=O)[C@H](CC(C)C)NC(=O)[C@H](CCCCN)NC(=O)[C@H](Cc1c[nH]c2ccccc12)NC(=O)[C@@H](N)CCCCN)C(N)=O` [KWKLFKKALKKLKKALKKAL], the minimum inhibitory concentration (MIC) in assay [1] and in assay [2] was 4.15 µM (≈ 10 µg/mL) in each case.

Turning to `CC[C@H](C)[C@H](NC(=O)[C@H](CC(C)C)NC(=O)[C@H](CCC(N)=O)NC(=O)[C@@H](NC(=O)[C@H](CC(C)C)NC(=O)[C@H](CCCN=C(N)N)NC(=O)[C@H](CCCN=C(N)N)NC(=O)[C@@H](NC(=O)[C@H](C)NC(=O)[C@H](CCCCN)NC(=O)[C@H](CCCN=C(N)N)NC(=O)[C@@H](N)CC(C)C)[C@@H](C)O)C(C)C)C(=O)N[C@H](C(=O)N[C@@H](CO)C(=O)NCC(=O)O)C(C)C` [LRKATRRLVQLIVSG], the minimum inhibitory concentration (MIC) in assay [6] was 25 µM (≈ 42.8 µg/mL); in assay [7], more than 25 µM; in assay [8], more than 25 µM; in assay [1], more than 25 µM; in [9], more than 25 µM.
